# Measured values published in US4257773A, “Assay method and compounds” (Burroughs Wellcome Co., priority 1979, dated 1981).
# Test system: opiate receptor
# Test: Specific binding affinity of radio-iodinated peaks for the opiate receptor
# Conditions: monoiodinated (first peak) compared with diiodinated (second peak) compound
# Method: The material comprising this peak was applied to a Sephadex 2-(diethylamino)ethyl ether column and eluted with sodium borate buffer (12.5 mM, pH 9.0, 0.1 N sodium chloride).
smiles,measurement,value
"CC(C)C[C@H](NC(=O)[C@H](Cc1ccccc1)NC(=O)CNC(=O)[C@@H](C)NC(=O)[C@@H](N)Cc1ccc(O)c([125I])c1)C(=O)O [material of the first peak, H.Tyr(3-^125 I).D-Ala.Gly.Phe.Leu.OH]",specific binding affinity (for the opiate receptor),greater specific binding affinity (for the opiate receptor) than that of the second peak
